SMILES strings stand for the structures.

One test has as its system otitis media. The experiment in a line: Treatment of otitis media in children (Example 1). As to conditions: children with otitis media; nasal drops or nasal spray twice daily, 10^-7 to 10^-2 moles/liter, with antibiotic therapy. It is filed as in vivo, human. The procedure:
Uridine 5′-triphosphate (UTP) is administered to children diagnosed with otitis media (OM). UTP is administered via nasal drops or nasal spray, twice daily, for a total of 5-10 days. The concentration of UTP is in the range of 10^−7 to 10^−2 moles/liter. Treatment with UTP begins as soon as OM is diagnosed and antibiotic therapy is initiated. The length of treatment for each patient is up to one month (28 days); the preferable length of treatment is one week (7 days). Effectiveness of UTP in eliminating middle ear fluid is assessed by several methods including: pneumatic otoscopy (to diagnose fluid in the middle ear and to evaluate the status of eardrum); tympanometry (to evaluate compliance of tympanic membrane/eardrum and to estimate middle ear pressure); acoustic reflectometry (to diagnose presence of air or fluid in the middle ear); and hearing evaluation tests.

Test [1] relates to lung epithelial cells of cystic fibrosis patients. Particulars: U.S. Pat. No. 5,292,498; cited from earlier work.
For the next test, the system named is lung epithelial cells. As to conditions: Boucher et al. 1995, Gheber et al. 1995; cited from earlier work.

With `O=c1ccn([C@@H]2O[C@H](COP(=O)(O)OP(=O)(O)OP(=O)(O)O)[C@@H](O)[C@H]2O)c(=O)[nH]1` [UTP, uridine 5′-triphosphate], in the test with otitis media, the “number of days that middle ear fluid is present” value is given as “decrease in the number of days that middle ear fluid is present” and the “number of days that symptoms such as pain or hearing impairment are experienced” value was “decrease in the number of days that symptoms such as pain or hearing impairment are experienced”. Further, the “chloride and water secretion” value in test [1] is “induce chloride and water secretion”. For the same molecule, in the test with lung epithelial cells, the ciliary beat frequency entry was “stimulate the ciliary beat frequency”.
As for `Nc1ncnc2c1ncn2[C@@H]1O[C@H](COP(=O)(O)OP(=O)(O)OP(=O)(O)O)[C@@H](O)[C@H]1O` [ATP, adenosine 5′-triphosphate], the “chloride and water secretion” value in test [1] is “induce chloride and water secretion”. The ciliary beat frequency entry in the test on lung epithelial cells is “stimulate the ciliary beat frequency”.

Source of the values: US6423694B1, “Method of treating otitis media with uridine triphosphates and related compounds” (Inspire Pharmaceuticals, Inc., priority 1996, dated 2002).
